Results as given in patent US9597316B2, “Indole compounds for use in treating inflammation and cancer” (BIOVENTURES LLC, priority 2012, dated 2017).

Key:
[1] = in water; cited from earlier work
CCRF-CEM (Leukemia) = assay: five dose-response growth inhibition/cytotoxicity, CCRF-CEM; assay type: cell-based, human; details: for CC50: read-out: LC50 (the source's name)
Procedure: (§1) The preliminary evaluation of compounds 3a-z was carried out at a single dose of 10 μM, against a panel of 60 human tumor cell lines, according to the procedure described by Rubinstein et al., Natl. Cancer. […] The human tumor cell line panel included leukemia, non-small cell lung, colon, central nervous system (CNS), melanoma, ovarian, renal, prostate, and breast cancer cell lines.
(§2) Dose-response curves were created by plotting cytotoxic effect against the log10 of the drug concentration for each cell line. Cytotoxic effects of each compound were determined as GI50 and LC50 values, which represent the molar drug concentration for causing 50% growth inhibition, and the concentration that kills 50% of the cells, respectively.

K-562 (Leukemia) = assay: five dose-response growth inhibition/cytotoxicity, K-562; assay type: cell-based, human; details: for CC50: read-out: LC50 (the source's name)
Procedure: as §1, §2

SR (Leukemia) = assay: five dose-response growth inhibition/cytotoxicity, SR; assay type: cell-based, human; details: for CC50: read-out: LC50 (the source's name)
Procedure: as §1, §2

[2] = system: HOP-62 (Non-Small Cell Lung Cancer); assay: five dose-response growth inhibition/cytotoxicity, HOP-62; assay type: cell-based, human; details: for CC50: read-out: LC50 (the source's name)
Procedure: as §1, §2

HCT-116 (Colon Cancer) = assay: five dose-response growth inhibition/cytotoxicity, HCT-116; assay type: cell-based, human; details: for CC50: read-out: LC50 (the source's name)
Procedure: as §1, §2

HCT-15 (Colon Cancer) = assay: five dose-response growth inhibition/cytotoxicity, HCT-15; assay type: cell-based, human; details: for CC50: read-out: LC50 (the source's name)
Procedure: as §1, §2

SF-268 (CNS Cancer) = assay: five dose-response growth inhibition/cytotoxicity, SF-268; assay type: cell-based, human; details: for CC50: read-out: LC50 (the source's name)
Procedure: as §1, §2

SF-539 (CNS Cancer) = assay: five dose-response growth inhibition/cytotoxicity, SF-539; assay type: cell-based, human; details: for CC50: read-out: LC50 (the source's name)
Procedure: as §1, §2

U251 (CNS Cancer) = assay: five dose-response growth inhibition/cytotoxicity, U251; assay type: cell-based, human; details: for CC50: read-out: LC50 (the source's name)
Procedure: as §1, §2

LOX IMVI (Melanoma) = assay: five dose-response growth inhibition/cytotoxicity, LOX IMVI; assay type: cell-based, human; details: for CC50: read-out: LC50 (the source's name)
Procedure: as §1, §2

M14 (Melanoma) = assay: five dose-response growth inhibition/cytotoxicity, M14; assay type: cell-based, human; details: for CC50: read-out: LC50 (the source's name)
Procedure: as §1, §2

MDA-MB-435 (Melanoma) = assay: five dose-response growth inhibition/cytotoxicity, MDA-MB-435; assay type: cell-based, human; details: for CC50: read-out: LC50 (the source's name)
Procedure: as §1, §2

SK-MEL-5 (Melanoma) = assay: five dose-response growth inhibition/cytotoxicity, SK-MEL-5; assay type: cell-based, human; details: for CC50: read-out: LC50 (the source's name)
Procedure: as §1, §2

UACC-62 (Melanoma) = assay: five dose-response growth inhibition/cytotoxicity, UACC-62; assay type: cell-based, human; details: for CC50: read-out: LC50 (the source's name)
Procedure: as §1, §2

OVCAR-3 (Ovarian Cancer) = assay: five dose-response growth inhibition/cytotoxicity, OVCAR-3; assay type: cell-based, human; details: for CC50: read-out: LC50 (the source's name)
Procedure: as §1, §2

[3] = system: NCI/ADR-RES (Ovarian Cancer); assay: five dose-response growth inhibition/cytotoxicity, NCI/ADR-RES; assay type: cell-based, human; details: for CC50: read-out: LC50 (the source's name)
Procedure: as §1, §2

[4] = system: DU-145 (Prostrate Cancer); assay: five dose-response growth inhibition/cytotoxicity, DU-145; assay type: cell-based, human; details: for CC50: read-out: LC50 (the source's name)
Procedure: as §1, §2

[5] = system: leukemia cell lines in the panel; assay: five dose-response growth inhibition, leukemia cell lines in the panel; assay type: cell-based, human; details: all four leukemia cell lines in the panel; read-out: GI50 values in the range
Procedure: as §1, §2

HL-60(TB) (Leukemia) = details: for CC50: read-out: LC50
Procedure: as §1, §2

KM-12 (Colon Cancer) = details: for CC50: read-out: LC50
MOLT-4 (Leukemia) = assay: five dose-response growth inhibition/cytotoxicity, MOLT-4; assay type: cell-based, human; details: for CC50: read-out: LC50 (the source's name)
Procedure: as §1, §2

[6] = five dose-response growth inhibition/cytotoxicity, UO-31; assay type: cell-based, human; details: for CC50: read-out: LC50 (the source's name)
Procedure: as §1, §2

[7] = system: HOP-92 non-small cell lung cancer; assay: five dose-response growth inhibition/cytotoxicity, HOP-92; assay type: cell-based, human; details: for CC50: read-out: LC50 (the source's name)
Procedure: as §1, §2

[8] = system: three melanoma cell lines; assay: five dose-response growth inhibition, melanoma cell lines; assay type: cell-based, human; details: read-out: GI50 values in the range
Procedure: as §1, §2

[9] = system: panel of 60 human tumor cell lines; assay: single dose (10 μM) evaluation against panel of 60 human tumor cell lines; assay type: cell-based; details: any of the human cancer cell lines in the 60 cell panel
Procedure: as §1

Row | SMILES | GI50 (CCRF-CEM (Leukemia)) | CC50 (CCRF-CEM (Leukemia)) | GI50 (K-562 (Leukemia)) | CC50 (K-562 (Leukemia)) | GI50 (SR (Leukemia)) | CC50 (SR (Leukemia)) | GI50 [2] | CC50 [2] | GI50 (HCT-116 (Colon Cancer)) | CC50 (HCT-116 (Colon Cancer)) | GI50 (HCT-15 (Colon Cancer)) | CC50 (HCT-15 (Colon Cancer)) | GI50 (SF-539 (CNS Cancer)) | CC50 (SF-539 (CNS Cancer)) | GI50 (U251 (CNS Cancer)) | CC50 (U251 (CNS Cancer)) | GI50 (LOX IMVI (Melanoma)) | CC50 (LOX IMVI (Melanoma)) | GI50 (M14 (Melanoma)) | CC50 (M14 (Melanoma)) | other results
1 | O=C1CC(=O)NC(=S)N1 [2-Thiobarbituric acid] |  |  |  |  |  |  |  |  |  |  |  |  |  |  |  |  |  |  |  |  | pKa [1]: 2.1
2 | COc1ccc(C(=O)n2cc(C=C3C(=O)NC(=S)NC3=O)c3cc(OC)ccc32)cc1 [Compound 3k] | 2.23 µM | > 50 µM | 2.55 µM | > 50 µM | 1.45 µM | 39.4 µM | 3.12 µM | > 50 µM | 1.95 µM | ≥ 50 µM | 1.8 µM | ≥ 50 µM | 2.56 µM | > 50 µM | 1.93 µM | > 50 µM | 1.86 µM | ≥ 50 µM | 2.03 µM | > 50 µM | GI50 (SF-268 (CNS Cancer)): 2.65 µM; CC50 (SF-268 (CNS Cancer)): > 50 µM; GI50 (MDA-MB-435 (Melanoma); MDA-MB-435): 0.85 µM; CC50 (MDA-MB-435 (Melanoma); MDA-MB-435): 3.86 µM; GI50 (MDA-MB-435 (Melanoma); melanoma MDA-MB-435): 0.85 µM; GI50 (SK-MEL-5 (Melanoma)): 2.31 µM; CC50 (SK-MEL-5 (Melanoma)): > 50 µM; GI50 (UACC-62 (Melanoma)): 2.33 µM; CC50 (UACC-62 (Melanoma)): > 50 µM; GI50 (OVCAR-3 (Ovarian Cancer)): 1.26 µM; CC50 (OVCAR-3 (Ovarian Cancer)): ≥ 50 µM; GI50 [3]: 2.91 µM; CC50 [3]: > 50 µM; GI50 [4]: 2.41 µM; CC50 [4]: > 50 µM; GI50 [5]: 1.45 to 3.91 µM; GI50 (HL-60(TB) (Leukemia)): 3.91 µM; CC50 (HL-60(TB) (Leukemia)): > 50 µM; GI50 (KM-12 (Colon Cancer)): 1.99 µM; CC50 (KM-12 (Colon Cancer)): ≥ 50 µM
3 | COc1ccc2c(c1)c(C=C1C(=O)NC(=S)NC1=O)cn2C(=O)c1ccccc1Br [Compound 3s] | 4 µM | > 100 µM | 3.8 µM | > 100 µM | 2.55 µM | > 100 µM | 3.59 µM | 64.3 µM | 3.76 µM | > 100 µM | 3.83 µM | 89.9 µM | 3 µM | 57.8 µM | 3.09 µM | 42.1 µM | 2.92 µM | 47.9 µM | 3.52 µM | > 100 µM | GI50 (SF-268 (CNS Cancer)): 3.86 µM; CC50 (SF-268 (CNS Cancer)): 52.2 µM; GI50 (MDA-MB-435 (Melanoma); MDA-MB-435): 1.77 µM; CC50 (MDA-MB-435 (Melanoma); MDA-MB-435): 8.43 µM; GI50 (SK-MEL-5 (Melanoma)): 3.47 µM; CC50 (SK-MEL-5 (Melanoma)): > 50 µM; GI50 (UACC-62 (Melanoma)): 3.38 µM; CC50 (UACC-62 (Melanoma)): 39.6 µM; GI50 (OVCAR-3 (Ovarian Cancer)): 2.77 µM; CC50 (OVCAR-3 (Ovarian Cancer)): 33.1 µM; GI50 [3]: 3.23 µM; CC50 [3]: > 100 µM; GI50 [4]: 3.01 µM; CC50 [4]: 53.6 µM; GI50 [5]: 2.55 to 4 µM; GI50 (HL-60(TB) (Leukemia)): 3.24 µM; CC50 (HL-60(TB) (Leukemia)): > 100 µM; GI50 (KM-12 (Colon Cancer)): 3.87 µM; CC50 (KM-12 (Colon Cancer)): 51.9 µM
4 | O=C1NC(=S)NC(=O)C1=Cc1cn(C(=O)c2cccc3ccccc23)c2ccccc12 [Compound 3t] | 3.35 µM | > 100 µM | 3.71 µM | > 100 µM | 2.74 µM | 92.3 µM | 1.3 µM | 44.8 µM | 2.9 µM | > 100 µM | 3.6 µM | > 100 µM | 3.68 µM | 58.6 µM | 3.58 µM | 50.7 µM | 3.59 µM | 55.6 µM | 3.22 µM | > 100 µM | GI50 (MOLT-4 (Leukemia)): 3.49 µM; CC50 (MOLT-4 (Leukemia)): 79 µM; GI50 (MDA-MB-435 (Melanoma); MDA-MB-435): 1.91 µM; CC50 (MDA-MB-435 (Melanoma); MDA-MB-435): 9.23 µM; GI50 (OVCAR-3 (Ovarian Cancer)): 2.46 µM; CC50 (OVCAR-3 (Ovarian Cancer)): 46.2 µM; GI50 [3]: 2.59 µM; CC50 [3]: > 100 µM; GI50 [6]: 3.93 µM; CC50 [6]: > 100 µM; GI50 [7]: 1.3 µM; CC50 [7]: 44.8 µM; GI50 [5]: 2.74 to 3.71 µM; GI50 (HL-60(TB) (Leukemia)): 3.36 µM; CC50 (HL-60(TB) (Leukemia)): > 100 µM
5 | COc1ccc2c(c1)c(C=C1C(=O)NC(=S)NC1=O)cn2C(=O)c1cccc2ccccc12 [Compound 3w] | 3.31 µM | > 100 µM | 3.52 µM | > 100 µM | 3.32 µM | > 100 µM | 1.09 µM | > 100 µM | 3.35 µM | > 100 µM | 3.1 µM | > 100 µM | 2.3 µM | > 100 µM | 3.23 µM | > 100 µM | 3.8 µM | > 100 µM | 1.91 µM | > 100 µM | GI50 (MOLT-4 (Leukemia)): 3.95 µM; CC50 (MOLT-4 (Leukemia)): > 100 µM; GI50 (MDA-MB-435 (Melanoma); MDA-MB-435): 2.01 µM; CC50 (MDA-MB-435 (Melanoma); MDA-MB-435): 12 µM; GI50 (OVCAR-3 (Ovarian Cancer)): 2.38 µM; CC50 (OVCAR-3 (Ovarian Cancer)): 20.9 µM; GI50 [3]: 3.14 µM; CC50 [3]: > 100 µM; GI50 [6]: 3.72 µM; CC50 [6]: > 100 µM; GI50 [7]: 1.09 µM; CC50 [7]: ≥ 100 µM; GI50 [5]: 3.31 to 3.95 µM; GI50 [8]: 1.91 to 3.8 µM; GI50 (HL-60(TB) (Leukemia)): 3.47 µM; CC50 (HL-60(TB) (Leukemia)): > 100 µM
6 | O=C1NC(=S)NC(=O)C1=Cc1cn(C(=O)c2ccc3ccccc3c2)c2ccccc12 [Compound 3x] |  |  |  |  |  |  |  |  |  |  |  |  |  |  |  |  |  |  |  |  | cytotoxic potency against the 60 cell panel [9]: not identified as potent cytotoxic agents
7 | COc1ccc2c(c1)c(C=C1C(=O)NC(=S)NC1=O)cn2C(=O)c1ccc2ccccc2c1 [Compound 3z] |  |  |  |  |  |  |  |  |  |  |  |  |  |  |  |  |  |  |  |  | cytotoxic potency against the 60 cell panel [9]: not identified as potent cytotoxic agents
